Data as given in patent publication US8440637B2, “Combination treatment for the treatment of hepatitis C virus infection” (priority 2007, dated 2013).
Strand notation (5' to 3'): a small letter for the sugar, then the base; units joined by * are phosphorothioate-linked, units joined directly phosphodiester-linked; [ ] holds rarer units or linkages, { } end groups; capitals alone tell only the bases. l = locked nucleic acid (LNA); [5mC] = 5-methylcytosine; d = 2'-deoxy (DNA)

Legend:
miR-122a [1] = experiment: Melting temperature (Tm) of LNA anti-miR/miR-122a RNA duplex; assay type: physicochemical, human; settings: Table 2; towards synthetic miR-122a RNA oligonucleotide with phosphorothioate linkages; PS backbone
Protocol: The melting temperatures were assessed towards the mature miR-122a sequence, using a synthetic miR-122a RNA oligonucleotide with phosphorothioate linkaged.
The LNA anti-miR/miR-122a oligo duplex was diluted to 3 μM in 500 μl RNase free H2O, which was then mixed with 500 μl 2× dimerization buffer (final oligo/duplex conc. 1.5 μM, 2× Tm buffer: 200 mM NaCl, 0.2 mM EDTA, 20 mM NaP, pH 7.0, DEPC treated to remove RNases). The mix was first heated to 95 degrees for 3 minutes, then allowed to cool at room temperature (RT) for 30 minutes.
Following RT incubation Tm was measured on Lambda 40 UV/VIS Spectrophotometer with peltier temperature progammer PTP6 using PE Templab software (Perkin Elmer). The temperature was ramped up from 20° C. to 95° C. and then down again to 20° C., continuously recording absorption at 260 nm. First derivative and local maximums of both the melting and annealing was used to assess melting/annealing point (Tm), both should give similar/same Tm values. For the first derivative 91 points was used to calculate the slope.

miR-122a [2] = experiment: miR-122a levels in mouse liver by microRNA specific qPCR; assay type: in vivo; settings: 25 mg/kg i.v. on 3 successive days; 24 hour after last dose
Protocol: Total RNA was extracted from liver samples as described above and analysed for miR-122a levels by microRNA specific QPCR.
In vivo study: Ten groups of animals (female C57/BL6; 3 mice per group) were treated in the following manner. Group 1 animals were injected with 0.2 ml saline by i.p. on day 0, day 2 and day 4. Groups 2-10 were dosed by i.p. with three different conc. (25 mg/kg, 5 mg/kg and 1 mg/kg) of either LNA antimiR-122a/SEQ ID NO: 61 (group 2-4), LNA antimir-122a/SEQ ID NO: 66 (group 5-7) or LNA antimir-122a/SEQ ID NO: 63 (group 8-10); the LNA antimir-122a sequences are given in the Table 1. All three LNA antimiR-122a oligonucleotides target the liver-specific miR-122a. The doses were calculated from the Day 0 body weights of each animal.
The animals were sacrificed 48 hours after last dose (Day 6), retro-orbital blood was collected in tubes containing EDTA and the plasma fraction harvested and stored frozen −80° C. for cholesterol analysis. At sacrifice livers were dissected and one portion was cut into 5 mm cubes and immersed in 5 volumes of ice-cold RNAlater. A second portion was snap frozen in liquid nitrogen and stored for cryo-sectioning.
Total RNA was extracted from liver samples using Trizol reagent according to the manufacturer's recommendations (Invitrogen, USA) and analysed for miR-122a levels by microRNA-specific QPCR according to the manufacturer's recommendations (Ambion, USA). […]
NMRI female mice were treated with indicated doses of LNA-antimiR (SEQ ID NO: 61) along with a mismatch control (m, SEQ ID NO: 65), saline and antagomir (SPC3595) for three consecutive days and sacrificed 24 hours after last dose (as in example 11 “old design”, n=5). miR-122 levels were analyzed by qPCR and normalized to the saline treated group.
C57BL/6J female mice were fed on high fat diet for 13 weeks before the initiation of the SEQ ID NO: 63 treatment. […] Both hypercholesterolemic and normal mice were treated i.p. twice weekly with 5 mg/kg SEQ ID NO: 63 and the corresponding mismatch control for a study period of 5½ weeks. Blood samples were collected weekly and total plasma cholesterol was measured during the entire course of the study. Upon sacrificing the mice, liver and blood samples were prepared for total RNA extraction, miRNA and mRNA quantification, assessment of the serum transaminase levels, and liver histology.
The miR-122 and let-7a microRNA levels were quantified with TaqMan microRNA Assay (Applied Biosystems) following the manufacturer's instructions. The RT reaction was diluted ten times in water and subsequently used for real time PCR amplification according to the manufacturer's instructions. A two-fold cDNA dilution series from liver total RNA of a saline-treated animal or mock transfected cells cDNA reaction (using 2.5 times more total RNA than in samples) served as standard to ensure a linear range (Ct versus relative copy number) of the amplification. Applied Biosystems 7500 or 7900 real-time PCR instrument was used for amplification.

Row | Substance | Tm (° C.) (miR-122a [1]) [°C] | miR-122a inhibition in liver (in words) (miR-122a [2])
1 | 5′-CCAttgtcacacTCCa-3′ (antisense l[5mC]*l[5mC]*lA*dT*dT*dG*dT*dC*dA*dC*dA*dC*lT*l[5mC]*l[5mC]*dA) [SEQ ID NO: 62] | 69 | –
2 | 5′-ccAttGtcTcaAtcCa-3′ (antisense dC*dC*lA*dT*dT*lG*dT*dC*lT*dC*dA*lA*dT*dC*l[5mC]*dA) [SEQ ID NO: 65, reference compound] | 46 | no miR-122a inhibition was detected
3 | 5′-cCatTgtCacActCca-3′ (antisense dC*l[5mC]*dA*dT*lT*dG*dT*l[5mC]*dA*dC*lA*dC*dT*l[5mC]*dC*dA) [SEQ ID NO: 60] | 75 | –
